The values below come from patent US5278158A, “Oxazinobenzazole compounds” (Yamanouchi Pharmaceutical Co., Ltd., priority 1991, dated 1994).

In experiment [1] the test system is 3,4-Diaminopyridine Induced Rhythmic Contractions. The experiment is described as follows: Effects on 3,4-Diaminopyridine Induced Rhythmic Contractions (isolated coronary artery rings). Details: species or system Mongrel dogs. The settings on record: Canis lupus familiaris, isolated dog coronary artery rings, 10 mM 3,4-diaminopyridine; for IC50: read-out: IC50 (inhibitory effect on the frequency of the rhythmic contractions); for IC100: read-out: IC100 (inhibitory effect on the frequency of the rhythmic contractions). The procedure: (1) Effects on 3,4-Diaminopyridine Induced Rhythmic Contractions
The experiment was carried out according to the method of Uchida, Sugimoto, et al. (Myakkangaku, 24, 133-143, 1984). Mongrel dogs of either sex were anesthetized with intravenous administration of 30 mg/Kg pentobarbital and were sacrificed by bleeding and then, the heart was excised from each animal. In the Krebs-Henseleit solution, the left circumflex branch or the anterior descending branch was isolated and cut into rings about 2 mm in width. The ring segments were fixed to a stainless-steal hook, and suspended in 37° C. Krebs-Henseleit solution aerated with a mixed gas (95% O2 and 5% CO2) under a tension load of 1.0 g, and isometric contractions were recorded. After the specimen was stabilized for 30 minutes, and rhythmic contractions were induced by treatment with 10 mM 3,4-diamiopyridine. After the amplitude and frequency of rhythmic contractions became substantially steady, a test compound was cumulatively added to the nutritious solution, and the concentration-response curves for the amplitude and frequency of the contractions were constructed and efficacy was evaluated.
[…] (the concentrations required to inhibit the frequency of the rhythmic contractions) of the compounds of this invention are between 0.1 and 10 μM.

Experiment [2] relates to blood pressure. The experiment is described as follows: Effects on the Cardiovascular Systems (anesthetized dogs, i.v.). The format is in vivo, Mongrel dogs. The settings on record: 10 μg/kg i.v. The procedure:
(2) Effects on the Cardiovascular Systems
Mongrel dogs of either sex were anesthetized with intravenous administration of 30 mg/Kg pentobarbital, and after tracheal intubation, the experiments were performed under artificial respiration. After thoracotomy, heart rate, blood pressure, left ventricle pressure, max. dLVP/dt, pulmonary artery pressure, central venous pressure, cardiac output and the coronary artery blood flow were measured. The effects of test compound on these parameters were evaluated by administering it through the cannula indwelt in the femoral vein. The present compounds are effective for lowering blood pressure at a dose of 1 to 1000 μg/kg i.v.

The next experiment concerns coronary artery. The experiment is described as follows: Coronary Vasodilating Effect (anesthetized dogs, intracoronary). The format is in vivo, Mongrel dogs. The settings on record: i.a.; action of 300 μg papaverine set as 100%. How it is done:
(3) Coronary Vasodilating Effect
Mongrel dogs of either sex were anesthetized with intravenous administration of 30 mg/Kg pentobarbital.
After tracheal intubation, the experiments was conducted under artificial respiration. After thoracotomy, the left circumflex branch was perfused with the autologous blood derived from the carotid artery at a constant pressure through an extracorporeal circuit. Coronary blood flow was measured with an electromagnetic flow probe installed in the extra-corporeal circuit. The test compound was administered directly into the coronary artery through the extra-corporeal circuit and the coronary vasodilating effects were evaluated.
The dilating action was expressed as percentage with the action of 300 μg papaverine being set as 100%, and the dose required to produce a blood flow increase of 100% (ED100pap) was calculated.

The test system of experiment [3] is blood pressure. Nature of the experiment: Hypotensive Effect in spontaneously hypertensive rats (oral). The format is in vivo, Spontaneously hypertensive rats (SHR) of Okamoto-Aoki strain. The settings on record: 300 μg/Kg p.o.; conscious SHR. The procedure:
Spontaneously hypertensive rats (SHR) of Okamoto-Aoki strain were anesthetized with pentobarbital, 60 mg/kg i.p. Then, a cannula for blood pressure measurement was indwelt in the left common carotid artery and the other end of the cannula was led out extracorporeally from the posterior neck. After a stabilization period of 4-5 days, blood pressure and heart rate were measured under freely moving condition.
The test compound was suspended in 0.5% methylcellulose solution and the suspension was orally administered in a volume of 5 ml/Kg and the efficacy was evaluated.

Regarding `CC1(C)CN(c2cccc[n+]2[O-])c2cc3nonc3cc2O1` [Example 2, 2-(7,8-dihydro-6,6-dimethyl-6H-[1,4]oxazino[2,3-f][2,1,3]benzoxadiazol-8-yl)pyridine N-oxide], in experiment [1], the IC50 (in general, the concentration that gives 50% inhibition) worked out at 150 nM and the IC100 came out at 0.66 µM. In addition, the “MBP (mean blood pressure-lowering effect)” value in the experiment on blood pressure [2] is reported as -33 Δ%. Moreover, the “ED100PAP (dose required to produce a blood flow increase of 100%)” value in the experiment on coronary artery was 3.5 µg. Moreover, in the experiment with blood pressure [3], the MBP is -45 Δ%.
`CC1(C)CN(c2cccc[n+]2[O-])c2cc3no[n+]([O-])c3cc2O1` [Example 4, 7,8-Dihydro-6,6-dimethyl-8-(2'-pyridyl)-6H-[1,4]oxazino[2,3-f][2,1,3]benzoxadiazole 3,1'-dioxide]: in experiment [1], the IC50 stood at 170 nM and the IC100 amounted to 1.23 µM. Besides, in the experiment on blood pressure [2], the “MBP (mean blood pressure-lowering effect)” value is listed as -10 Δ%.
